Experimental data reported in patent US20090068290A1, “BIFEPRUNOX DOSES FOR TREATING SCHIZOPHRENIA” (priority 2006, published 2009).

Legend:
[1] = tested on: adult subjects with schizophrenia; test: PANSS positive symptom subscale score, Clinical Study Two; assay type: in vivo, human; details: LOCF, ITT; for PANSS Positive Symptom Subscale Score, Trt Effect (bifeprunox—placebo): ANCOVA
Description: (§1) Rating scale assessments were performed weekly, except for week 5, to measure the change from baseline to endpoint of the PANSS total score. Other assessments included: PANSS positive symptom subscale score, PANSS negative symptom subscale score, PANSS general pschopathology subscale score, BPRS total score, BPRS psychosis score, the CGI-S score, the CGI-I score, responder rates based on the PANSS total score, and the Calgary Depression Scale for Schizophrenia (CDSS). […]
(§2) Subjects who completed this study had the option to continue in the long-term. […] Risperidone-treated subjects were titrated from 2 mg to 6 mg daily over a three-day period and were subsequently maintained at 6 mg/day for the remainder of the treatment period. […] Blood samples were also obtained at Screening/Baseline, Week 3, and Week 6 for clinical laboratory assessments.

[2] = tested on: adult subjects with schizophrenia; test: CGI Improvement score, Clinical Study Two; assay type: in vivo, human; details: LOCF
Description: as §1, §2

[3] = Bifeprunox 30 mg, Week 6/Endpoint
[4] = Bifeprunox 40 mg, Week 6/Endpoint

SMILES: O=c1[nH]c2cccc(N3CCN(Cc4cccc(-c5ccccc5)c4)CC3)c2o1 [Bifeprunox, 7-[4-([1,1′-biphenyl]-3-ylmethyl)-1-piperazinyl]-2(3H)-benzoxazolone]
- Change from Baseline in PANSS Positive Symptom Subscale Score, Mean (SD) ([1]; Bifeprunox 30 mg, Week 1): −2.3 (3.6)
- Change from Baseline in PANSS Positive Symptom Subscale Score, Median ([1]; Bifeprunox 30 mg, Week 1): −2
- Change from Baseline in PANSS Positive Symptom Subscale Score, Mean (SD) ([1]; Bifeprunox 30 mg, Week 2): −4.1 (5.3)
- Change from Baseline in PANSS Positive Symptom Subscale Score, Median ([1]; Bifeprunox 30 mg, Week 2): −3
- Change from Baseline in PANSS Positive Symptom Subscale Score, Mean (SD) ([1]; Bifeprunox 30 mg, Week 3): −4.5 (5.6)
- Change from Baseline in PANSS Positive Symptom Subscale Score, Median ([1]; Bifeprunox 30 mg, Week 3): −4
- Change from Baseline in PANSS Positive Symptom Subscale Score, Mean (SD) ([1]; Bifeprunox 30 mg, Week 4): −4.4 (5.9)
- Change from Baseline in PANSS Positive Symptom Subscale Score, Median ([1]; Bifeprunox 30 mg, Week 4): −4
- Change from Baseline in PANSS Positive Symptom Subscale Score, Mean (SD) [1, 3]: −4.5 (6.6)
- Change from Baseline in PANSS Positive Symptom Subscale Score, Median [1, 3]: −4
- PANSS Positive Symptom Subscale Score, Trt Effect (bifeprunox—placebo) [1, 3]: −1.9
- Change from Baseline in PANSS Positive Symptom Subscale Score, Mean (SD) ([1]; Bifeprunox 40 mg, Week 1): −2.8 (3.9)
- Change from Baseline in PANSS Positive Symptom Subscale Score, Median ([1]; Bifeprunox 40 mg, Week 1): −2
- Change from Baseline in PANSS Positive Symptom Subscale Score, Mean (SD) ([1]; Bifeprunox 40 mg, Week 2): −3.6 (5.7)
- Change from Baseline in PANSS Positive Symptom Subscale Score, Median ([1]; Bifeprunox 40 mg, Week 2): −3
- Change from Baseline in PANSS Positive Symptom Subscale Score, Mean (SD) ([1]; Bifeprunox 40 mg, Week 3): −4.1 (6.3)
- Change from Baseline in PANSS Positive Symptom Subscale Score, Median ([1]; Bifeprunox 40 mg, Week 3): −4
- Change from Baseline in PANSS Positive Symptom Subscale Score, Mean (SD) ([1]; Bifeprunox 40 mg, Week 4): −3.7 (6.6)
- Change from Baseline in PANSS Positive Symptom Subscale Score, Median ([1]; Bifeprunox 40 mg, Week 4): −3
- Change from Baseline in PANSS Positive Symptom Subscale Score, Mean (SD) [1, 4]: −4.2 (6.9)
- Change from Baseline in PANSS Positive Symptom Subscale Score, Median [1, 4]: −4
- PANSS Positive Symptom Subscale Score, Trt Effect (bifeprunox—placebo) [1, 4]: −1.7
- CGI Improvement Minimally Improved, % ([2]; 30 mg, Week 2): (33%)
- CGI Improvement Minimally Worse, % ([2]; 30 mg, Week 2): (8%)
- CGI Improvement Much Improved, % ([2]; 30 mg, Week 2): (29%)
- CGI Improvement Much Worse, % ([2]; 30 mg, Week 2): (3%)
- CGI Improvement No Change, % ([2]; 30 mg, Week 2): (24%)
- CGI Improvement Very Much Improved, % ([2]; 30 mg, Week 2): (3%)
- CGI Improvement Very Much Worse, % ([2]; 30 mg, Week 2): (<1%)
- CGI Improvement Minimally Improved, % ([2]; 30 mg, Week 3): (28%)
- CGI Improvement Minimally Worse, % ([2]; 30 mg, Week 3): (7%)
- CGI Improvement Much Improved, % ([2]; 30 mg, Week 3): (27%)
- CGI Improvement Much Worse, % ([2]; 30 mg, Week 3): (4%)
- CGI Improvement No Change, % ([2]; 30 mg, Week 3): (26%)
- CGI Improvement Very Much Improved, % ([2]; 30 mg, Week 3): (6%)
- CGI Improvement Very Much Worse, % ([2]; 30 mg, Week 3): (<1%)
- CGI Improvement Minimally Improved, % ([2]; 30 mg, Week 4): (26%)
- CGI Improvement Minimally Worse, % ([2]; 30 mg, Week 4): (9%)
- CGI Improvement Much Improved, % ([2]; 30 mg, Week 4): (26%)
- CGI Improvement Much Worse, % ([2]; 30 mg, Week 4): (4%)
- CGI Improvement No Change, % ([2]; 30 mg, Week 4): (24%)
- CGI Improvement Very Much Improved, % ([2]; 30 mg, Week 4): (9%)
- CGI Improvement Very Much Worse, % ([2]; 30 mg, Week 4): (<1%)
- CGI Improvement Minimally Improved, % ([2]; 30 mg, Week 6/Endpoint): (21%)
- CGI Improvement Minimally Worse, % ([2]; 30 mg, Week 6/Endpoint): (11%)
- CGI Improvement Much Improved, % ([2]; 30 mg, Week 6/Endpoint): (28%)
- CGI Improvement Much Worse, % ([2]; 30 mg, Week 6/Endpoint): (6%)
- CGI Improvement No Change, % ([2]; 30 mg, Week 6/Endpoint): (24%)
- CGI Improvement Very Much Improved, % ([2]; 30 mg, Week 6/Endpoint): (9%)
- CGI Improvement Very Much Worse, % ([2]; 30 mg, Week 6/Endpoint): (<1%)
- CGI Improvement Minimally Improved, % ([2]; 40 mg, Week 2): (37%)
- CGI Improvement Minimally Worse, % ([2]; 40 mg, Week 2): (7%)
- CGI Improvement Much Improved, % ([2]; 40 mg, Week 2): (19%)
- CGI Improvement Much Worse, % ([2]; 40 mg, Week 2): (11%)
- CGI Improvement No Change, % ([2]; 40 mg, Week 2): (22%)
- CGI Improvement Very Much Improved, % ([2]; 40 mg, Week 2): (4%.)
- CGI Improvement Minimally Improved, % ([2]; 40 mg, Week 3): (30%)
- CGI Improvement Minimally Worse, % ([2]; 40 mg, Week 3): (6%)
- CGI Improvement Much Improved, % ([2]; 40 mg, Week 3): (21%)
- CGI Improvement Much Worse, % ([2]; 40 mg, Week 3): (14%)
- CGI Improvement No Change, % ([2]; 40 mg, Week 3): (23%)
- CGI Improvement Very Much Improved, % ([2]; 40 mg, Week 3): (5%)
- CGI Improvement Minimally Improved, % ([2]; 40 mg, Week 4): (29%)
- CGI Improvement Minimally Worse, % ([2]; 40 mg, Week 4): (9%)
- CGI Improvement Much Improved, % ([2]; 40 mg, Week 4): (20%)
- CGI Improvement Much Worse, % ([2]; 40 mg, Week 4): (14%)
